Measured values reported in ChEMBL document CHEMBL2010698 (J Med Chem, 2012).

Assays:
[1] = target: T1, Acetylcholinesterase (Homo sapiens, UniProt P22303); experiment: Inhibition of human recombinant AChE-induced Abeta1-40 aggregation by thioflavin T fluorescence method
[2] = target: T2, Acetylcholinesterase (Bos taurus, UniProt P23795); experiment: Inhibition of bovine AChE-induced coumarin-tagged PrP106-126 aggregation after 48 hrs by fluorescence microscopy
T2 sequence (P23795 whole entry): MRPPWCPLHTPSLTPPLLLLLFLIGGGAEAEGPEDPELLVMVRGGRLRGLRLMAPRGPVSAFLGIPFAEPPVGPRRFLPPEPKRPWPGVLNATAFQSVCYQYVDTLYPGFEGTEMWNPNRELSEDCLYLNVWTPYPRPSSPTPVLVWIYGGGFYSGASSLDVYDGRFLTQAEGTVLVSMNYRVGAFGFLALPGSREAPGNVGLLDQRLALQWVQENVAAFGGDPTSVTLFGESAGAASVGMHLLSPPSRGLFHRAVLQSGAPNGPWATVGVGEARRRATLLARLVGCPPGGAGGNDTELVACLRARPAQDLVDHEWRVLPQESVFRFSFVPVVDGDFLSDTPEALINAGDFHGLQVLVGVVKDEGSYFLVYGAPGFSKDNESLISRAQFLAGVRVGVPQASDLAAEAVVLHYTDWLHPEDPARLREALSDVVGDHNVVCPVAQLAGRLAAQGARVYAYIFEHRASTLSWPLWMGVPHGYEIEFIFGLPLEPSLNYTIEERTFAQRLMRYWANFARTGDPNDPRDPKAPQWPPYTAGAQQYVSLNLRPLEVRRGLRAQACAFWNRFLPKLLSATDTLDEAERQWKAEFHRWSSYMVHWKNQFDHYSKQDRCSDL

[3] = Inhibition of self-induced Abeta1-42 aggregation after 24 hrs by thioflavin T fluorescence method
[4] = target: T1, Acetylcholinesterase
Description: Inhibition of human recombinant AChE using acetylthiocholine iodide as substrate preincubated for 20 mins prior substrate addition measured after 5 mins by spectrophotometry

[5] = target: T3, Cholinesterase (Homo sapiens, UniProt P06276)
T3 sequence (P06276 whole entry): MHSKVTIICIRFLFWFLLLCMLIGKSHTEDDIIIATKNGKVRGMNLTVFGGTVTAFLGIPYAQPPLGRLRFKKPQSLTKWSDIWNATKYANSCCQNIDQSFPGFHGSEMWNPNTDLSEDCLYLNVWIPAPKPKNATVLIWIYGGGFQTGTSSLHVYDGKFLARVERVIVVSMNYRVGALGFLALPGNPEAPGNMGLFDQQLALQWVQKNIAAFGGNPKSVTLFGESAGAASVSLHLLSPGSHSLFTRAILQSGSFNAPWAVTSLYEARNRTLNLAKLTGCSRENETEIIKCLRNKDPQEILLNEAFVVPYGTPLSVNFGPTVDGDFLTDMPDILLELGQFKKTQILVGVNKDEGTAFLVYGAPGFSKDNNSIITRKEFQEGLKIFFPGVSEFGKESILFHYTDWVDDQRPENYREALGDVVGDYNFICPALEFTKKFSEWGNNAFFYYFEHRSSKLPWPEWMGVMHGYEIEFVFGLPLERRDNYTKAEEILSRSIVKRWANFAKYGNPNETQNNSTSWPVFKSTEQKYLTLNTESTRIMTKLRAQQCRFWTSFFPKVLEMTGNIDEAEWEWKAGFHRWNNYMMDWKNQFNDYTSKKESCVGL
Description: Inhibition of human serum BChE using butyrylthiocholine iodide as substrate preincubated for 20 mins prior substrate addition measured after 5 mins by spectrophotometry

[6] = in vitro; conditions: pig, PAMPA
Description: Permeability across porcine brain lipid layer after 240 mins by PAMPA-BBB assay

[7] = species: Mus musculus; experiment: animal or person; conditions: OF1, Brain, ip, 20 min, read-out: INH
[8] = target: T4, Beta-secretase 1 (Homo sapiens, UniProt P56817); experiment: Inhibition of human recombinant BACE-1 using M-2420 as substrate preincubated for 1 hr prior substrate addition measured after 15 mins by spectrofluorimetry
T4 sequence (P56817 whole entry): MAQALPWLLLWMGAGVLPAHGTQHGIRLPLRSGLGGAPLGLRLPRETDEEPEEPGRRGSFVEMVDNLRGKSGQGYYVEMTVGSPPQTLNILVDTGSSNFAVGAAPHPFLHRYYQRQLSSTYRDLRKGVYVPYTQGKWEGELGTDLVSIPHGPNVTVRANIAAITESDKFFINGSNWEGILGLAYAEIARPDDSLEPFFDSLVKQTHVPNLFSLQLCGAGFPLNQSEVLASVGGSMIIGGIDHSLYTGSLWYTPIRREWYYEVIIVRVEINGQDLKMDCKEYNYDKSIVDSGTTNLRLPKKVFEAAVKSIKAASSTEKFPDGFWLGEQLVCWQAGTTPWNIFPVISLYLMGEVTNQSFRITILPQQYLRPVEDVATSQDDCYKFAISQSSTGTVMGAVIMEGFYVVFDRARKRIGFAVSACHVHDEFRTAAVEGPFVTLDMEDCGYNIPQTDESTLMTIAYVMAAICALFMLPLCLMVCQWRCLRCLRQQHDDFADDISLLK

[9] = target: T3, Cholinesterase; experiment: Ratio of (+/-)-huprine Y IC50 to compound IC50 for human serum BChE
[10] = target: T4, Beta-secretase 1; conditions: 5 uM
Description: Inhibition of human recombinant BACE-1 using panvera peptide as substrate at 5 uM preincubated for 60 mins prior substrate addition measured after 60 mins by spectrofluorimetry

[11] = target: T1, Acetylcholinesterase; remark: listed apart in the source
Description: Competitive inhibition of human recombinant AChE by Lineweaver-Burk plot analysis

T1 sequence (P22303 whole entry): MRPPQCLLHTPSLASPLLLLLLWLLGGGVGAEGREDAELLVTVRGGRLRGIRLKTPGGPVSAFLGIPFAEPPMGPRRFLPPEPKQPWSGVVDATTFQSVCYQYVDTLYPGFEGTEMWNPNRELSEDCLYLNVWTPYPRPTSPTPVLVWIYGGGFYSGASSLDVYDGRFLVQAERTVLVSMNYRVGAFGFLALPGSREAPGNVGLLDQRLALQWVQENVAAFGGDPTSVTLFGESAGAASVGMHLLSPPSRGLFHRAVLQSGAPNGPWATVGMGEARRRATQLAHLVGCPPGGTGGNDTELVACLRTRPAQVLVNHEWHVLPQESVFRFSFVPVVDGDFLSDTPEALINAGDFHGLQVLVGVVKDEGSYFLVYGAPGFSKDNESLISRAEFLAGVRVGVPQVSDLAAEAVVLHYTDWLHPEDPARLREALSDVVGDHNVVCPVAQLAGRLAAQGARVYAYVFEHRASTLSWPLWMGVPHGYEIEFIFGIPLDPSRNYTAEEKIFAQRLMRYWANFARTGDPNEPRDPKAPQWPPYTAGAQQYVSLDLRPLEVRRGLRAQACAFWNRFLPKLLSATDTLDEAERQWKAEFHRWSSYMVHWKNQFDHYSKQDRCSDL

Row | SMILES | IC50 [4] | IC50 [5] | Papp at 4 h [6] | IC50 [8] | also measured
1 | CC1=CC2Cc3nc4cc(Cl)ccc4c(NCCCCCCCCNc4c5c(nc6ccccc46)CCCC5)c3C(C1)C2.Cl (racemic) | 0.00138 µM | 0.0742 µM | 10.2 ×10⁻⁶ cm/s | – | IC50 [1]: 61.3 µM; IC50 [2]: 0.0687 µM; IC50 [3]: ≤ 10 µM; inhibition in vivo at 10 µmol/kg [7]: 30%
2 | CC1=CC2Cc3nc4cc(Cl)ccc4c(NCCCCCCCCCNc4c5c(nc6cc(Cl)ccc46)CCCC5)c3C(C1)C2.Cl.Cl.Cl.Cl (racemic) | 0.00326 µM | 0.0272 µM | 15.6 ×10⁻⁶ cm/s | 5.8 µM | Ratio IC50 [9]: 6
3 | CC1=C[C@H]2Cc3nc4cc(Cl)ccc4c(NCCCCCCCNc4c5c(nc6cc(Cl)ccc46)CCCC5)c3[C@@H](C1)C2 | 0.0115 µM | 0.0474 µM | – | 5.9 µM | –
4 | CC1=CC2Cc3nc4cc(Cl)ccc4c(NCCCCCCCCCCNc4c5c(nc6ccccc46)CCCC5)c3C(C1)C2.Cl.Cl.Cl (racemic) | 0.00419 µM | 0.0266 µM | 16.3 ×10⁻⁶ cm/s | 7.3 µM | Ratio IC50 [9]: 6
5 | CC1=CC2Cc3nc4cc(Cl)ccc4c(NCCCN(C)CCCNc4c5c(nc6ccccc46)CCCC5)c3C(C1)C2.Cl (racemic) | 0.00042 µM | 0.0442 µM | 11.4 ×10⁻⁶ cm/s | – | –
6 | CC1=C[C@@H]2Cc3nc4cc(Cl)ccc4c(NCCCCCCCNc4c5c(nc6ccccc46)CCCC5)c3[C@H](C1)C2 | 0.00133 µM | 0.133 µM | – | – | IC50 [3]: ≤ 10 µM
7 | CC1=C[C@@H]2Cc3nc4cc(Cl)ccc4c(N)c3[C@H](C1)C2 | – | – | – | – | inhibition [10]: 14%
8 | CC1=CC2Cc3nc4cc(Cl)ccc4c(NCCCCCCCCNc4c5c(nc6cc(Cl)ccc46)CCCC5)c3C(C1)C2.Cl (racemic) | 0.00132 µM | 0.0351 µM | 21.1 ×10⁻⁶ cm/s | 4.9 µM | IC50 [2]: 0.263 µM; inhibition in vivo at 10 µmol/kg [7]: 28.5%
9 | CC1=CC2Cc3nc4cc(Cl)ccc4c(NCCCCCCNc4c5c(nc6ccccc46)CCCC5)c3C(C1)C2.Cl (racemic) | 0.00089 µM | 0.0246 µM | 10.7 ×10⁻⁶ cm/s | – | Ratio IC50 [9]: 6
10 | CC1=CC2Cc3nc4cc(Cl)ccc4c(NCCCCCCNc4c5c(nc6cc(Cl)ccc46)CCCC5)c3C(C1)C2.Cl (racemic) | 0.00074 µM | 0.0752 µM | 12 ×10⁻⁶ cm/s | – | –
11 | CC1=C[C@H]2Cc3nc4cc(Cl)ccc4c(N)c3[C@@H](C1)C2 | – | – | – | – | inhibition [10]: 13.6%
12 | CC1=CC2Cc3nc4cc(Cl)ccc4c(NCCCCCCCCCCNc4c5c(nc6cc(Cl)ccc46)CCCC5)c3C(C1)C2.Cl.Cl.Cl.Cl (racemic) | 0.00909 µM | 0.0766 µM | 29.1 ×10⁻⁶ cm/s | 6.6 µM | –
13 | CC1=CC2Cc3nc4cc(Cl)ccc4c(NCCCCCCCNc4c5c(nc6cc(Cl)ccc46)CCCC5)c3C(C1)C2.Cl.Cl.Cl.Cl (racemic) | 0.00402 µM | 0.0733 µM | 20.9 ×10⁻⁶ cm/s | – | –
14 | CC1=C[C@H]2Cc3nc4cc(Cl)ccc4c(NCCCCCCCNc4c5c(nc6ccccc46)CCCC5)c3[C@@H](C1)C2 | 0.00684 µM | 0.139 µM | – | – | IC50 [3]: ≤ 10 µM
15 | CC1=CC2Cc3nc4cc(Cl)ccc4c(N)c3C(C1)C2 (racemic) | – | 0.175 µM | – | – | –
16 | CC1=CC2Cc3nc4cc(Cl)ccc4c(NCCCCCCCCCNc4c5c(nc6ccccc46)CCCC5)c3C(C1)C2.Cl.Cl.Cl (racemic) | – | – | 6 ×10⁻⁶ cm/s | – | –
17 | CC1=C[C@@H]2Cc3nc4cc(Cl)ccc4c(NCCCCCCCNc4c5c(nc6cc(Cl)ccc46)CCCC5)c3[C@H](C1)C2 | 0.00204 µM | 0.0868 µM | – | 5.7 µM | Kic [11]: 1.51 nM
18 | CC1=CC2Cc3nc4cc(Cl)ccc4c(NCCCCCCCNc4c5c(nc6ccccc46)CCCC5)c3C(C1)C2.Cl.Cl.Cl (racemic) | 0.00189 µM | 0.0871 µM | 12.5 ×10⁻⁶ cm/s | – | IC50 [3]: ≤ 10 µM
19 | CC1=CC2Cc3nc4cc(Cl)ccc4c(NCCCN(C)CCCNc4c5c(nc6cc(Cl)ccc46)CCCC5)c3C(C1)C2.Cl (racemic) | 0.00031 µM | 0.0513 µM | 7 ×10⁻⁶ cm/s | – | –
